What is called EC50 is the midpoint of the concentration-response curve.

In one test the target is T1, human GIP R (Homo sapiens, UniProt P48546).
T1 construct: expressed in transfected cells
T1 sequence (P48546 22-466): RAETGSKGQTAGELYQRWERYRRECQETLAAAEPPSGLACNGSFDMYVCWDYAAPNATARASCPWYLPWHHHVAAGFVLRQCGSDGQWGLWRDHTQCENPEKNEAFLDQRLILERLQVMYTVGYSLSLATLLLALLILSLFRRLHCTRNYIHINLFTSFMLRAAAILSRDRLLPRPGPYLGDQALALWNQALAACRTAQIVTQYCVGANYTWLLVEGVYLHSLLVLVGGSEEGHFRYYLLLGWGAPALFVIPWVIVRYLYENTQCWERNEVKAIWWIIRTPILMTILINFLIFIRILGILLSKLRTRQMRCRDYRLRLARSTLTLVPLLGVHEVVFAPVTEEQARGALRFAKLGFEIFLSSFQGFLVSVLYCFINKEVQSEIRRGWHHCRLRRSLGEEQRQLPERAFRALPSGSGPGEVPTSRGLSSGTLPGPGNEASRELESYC
The test is described as follows: Human GIP receptor (GIP R) activity assay, cAMP induction (AlphaScreen) in HEK293 cells. The conditions noted are these: Table 3; most comprehensive data; read-out: hGIP-R cAMP EC50 average value. It is filed as cell-based. Summed up:
(§1)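 Stable HEK293 clones expressing human GIP R or GLP-1 R, seeded 1 day before; cells washed in Tyrode's buffer (10 mM HEPES, pH 7.4), stimulated, then lysed. cAMP measured by AlphaScreen bead competition (1 h, room temperature, dark). EC50 = concentration giving half-maximal cAMP elevation, from curves of absolute cAMP (nM) vs log concentration.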
(In general: In Alpha technology, singlet oxygen from a donor bead excites a nearby acceptor bead.)

Another test addresses T2, human GLP-1 R (Homo sapiens, UniProt P43220).
T2 construct: expressed in transfected cells
Kind of test: Human GLP-1 receptor (GLP-1 R) activity assay, cAMP induction (AlphaScreen) in HEK293 cells. It is filed as cell-based. The conditions noted are these: Table 3; most comprehensive data; read-out: hGLP-1-R cAMP EC50 average value. A digest of the protocol:
as §1

Structures are written as SMILES. *1 amine or outer side, *2 acyl side, *3 side chain or, on linkers, in order; H or OH if unused. Where a SMILES comes first, the peptide text is derived from it. Side-chain parts run from the residue outwards. [ ]: non-standard residue; d: D form. The star is where a group is joined. C20 diacid = O=C(O)CCCCCCCCCCCCCCCCCCC(=O)*; γGlu = O=C(O)[C@H](CCC(=O)[*:2])N[*:1]; AEEA = NCCOCCOCC(=O)O; Aib = CC(C)(N)C(=O)O

T2 sequence (P43220 24-463): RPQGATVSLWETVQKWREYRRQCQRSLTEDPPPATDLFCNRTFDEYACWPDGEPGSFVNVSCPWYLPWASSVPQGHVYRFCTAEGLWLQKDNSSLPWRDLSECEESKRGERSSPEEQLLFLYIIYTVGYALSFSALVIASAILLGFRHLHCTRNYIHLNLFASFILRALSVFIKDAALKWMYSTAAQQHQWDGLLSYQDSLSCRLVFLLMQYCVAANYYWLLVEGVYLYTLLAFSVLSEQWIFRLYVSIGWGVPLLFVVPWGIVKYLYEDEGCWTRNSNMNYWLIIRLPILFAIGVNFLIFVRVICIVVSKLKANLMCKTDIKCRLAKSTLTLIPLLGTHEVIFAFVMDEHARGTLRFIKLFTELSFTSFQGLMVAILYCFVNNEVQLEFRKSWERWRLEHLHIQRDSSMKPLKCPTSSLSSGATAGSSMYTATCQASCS

For the molecule `CC[C@H](C)[C@H](NC(=O)[C@H](CO)NC(=O)[C@H](Cc1ccc(O)cc1)NC(=O)[C@H](CC(=O)O)NC(=O)[C@H](CO)NC(=O)[C@@H](NC(=O)[C@H](Cc1ccccc1)NC(=O)[C@@H](NC(=O)CNC(=O)[C@H](CCC(=O)O)NC(=O)C(C)(C)NC(=O)[C@@H](N)Cc1ccc(O)cc1)[C@@H](C)O)[C@@H](C)O)C(=O)N[C@@H](C)C(=O)N[C@@H](CC(C)C)C(=O)N[C@@H](CC(=O)O)C(=O)N[C@@H](CCCCN)C(=O)N[C@@H](CCCCNC(=O)COCCOCCNC(=O)COCCOCCNC(=O)CC[C@H](NC(=O)CCCCCCCCCCCCCCCCCCC(=O)O)C(=O)O)C(=O)N[C@@H](C)C(=O)N[C@@H](CCC(N)=O)C(=O)N[C@@H](CCCNC(=N)N)C(=O)N[C@@H](C)C(=O)N[C@@H](Cc1ccccc1)C(=O)N[C@H](C(=O)N[C@@H](CCC(=O)O)C(=O)N[C@@H](Cc1c[nH]c2ccccc12)C(=O)N[C@@H](CC(C)C)C(=O)N[C@@H](CC(C)C)C(=O)N[C@@H](C)C(=O)N[C@@H](CCC(N)=O)C(=O)N[C@@H](CCCCN)C(=O)N1CCC[C@H]1C(=O)N[C@@H](CO)C(=O)N[C@@H](CO)C(=O)NCC(=O)N[C@@H](C)C(=O)N1CCC[C@H]1C(=O)N1CCC[C@H]1C(=O)N1CCC[C@H]1C(=O)N[C@@H](CO)C(N)=O)C(C)C` [Compound 38] (H-Y[Aib]EGTFTSDYSIALDKK([AEEA-AEEA-γGlu-C20 diacid])AQRAFVEWLLAQKPSSGAPPPS-NH2), the EC50 amounted to 0.005 nM at human GIP R and 0.012 nM at human GLP-1 R.
On the same counts, the results for `CC[C@H](C)[C@H](NC(=O)[C@H](CO)NC(=O)[C@H](Cc1ccc(O)cc1)NC(=O)[C@H](CC(=O)O)NC(=O)[C@H](CO)NC(=O)[C@@H](NC(=O)[C@H](Cc1ccccc1)NC(=O)[C@@H](NC(=O)CNC(=O)[C@H](CCC(=O)O)NC(=O)[C@@H](C)NC(=O)[C@@H](N)Cc1ccc(O)cc1)[C@@H](C)O)[C@@H](C)O)C(=O)N[C@@H](C)C(=O)N[C@@H](CC(C)C)C(=O)N[C@@H](CC(=O)O)C(=O)N[C@@H](CCCCN)C(=O)N[C@@H](CCCCNC(=O)COCCOCCNC(=O)COCCOCCNC(=O)CC[C@H](NC(=O)CCCCCCCCCCCCCCCCCCC(=O)O)C(=O)O)C(=O)N[C@@H](C)C(=O)N[C@@H](CCC(N)=O)C(=O)N[C@@H](CCCNC(=N)N)C(=O)N[C@@H](C)C(=O)N[C@@H](Cc1ccccc1)C(=O)N[C@H](C(=O)N[C@@H](CCC(=O)O)C(=O)N[C@@H](Cc1c[nH]c2ccccc12)C(=O)N[C@@H](CC(C)C)C(=O)N[C@@H](CC(C)C)C(=O)N[C@@H](C)C(=O)N[C@@H](CCC(N)=O)C(=O)N[C@@H](CCCCN)C(=O)N1CCC[C@H]1C(=O)N[C@@H](CO)C(=O)N[C@@H](CO)C(=O)NCC(=O)N[C@@H](C)C(=O)N1CCC[C@H]1C(=O)N1CCC[C@H]1C(=O)N1CCC[C@H]1C(=O)N[C@@H](CO)C(N)=O)C(C)C` [Compound 39] (H-Y[dA]EGTFTSDYSIALDKK([AEEA-AEEA-γGlu-C20 diacid])AQRAFVEWLLAQKPSSGAPPPS-NH2) are 0.011 nM and 0.006 nM.
The matching figures for `CC[C@H](C)[C@H](NC(=O)[C@H](CO)NC(=O)[C@H](Cc1ccc(O)cc1)NC(=O)[C@H](CC(=O)O)NC(=O)[C@H](CO)NC(=O)[C@@H](NC(=O)[C@H](Cc1ccccc1)NC(=O)[C@@H](NC(=O)CNC(=O)[C@H](CCC(=O)O)NC(=O)C(C)(C)NC(=O)[C@@H](N)Cc1ccc(O)cc1)[C@@H](C)O)[C@@H](C)O)C(=O)N[C@@H](C)C(=O)N[C@@H](CC(C)C)C(=O)N[C@@H](CC(=O)O)C(=O)N[C@@H](CCCCN)C(=O)N[C@@H](CCCCNC(=O)COCCOCCNC(=O)COCCOCCNC(=O)CC[C@H](NC(=O)CCCCCCCCCCCCCCCCCCC(=O)O)C(=O)O)C(=O)N[C@@H](C)C(=O)N[C@@H](CCC(N)=O)C(=O)N[C@@H](CCCNC(=N)N)C(=O)N[C@@H](C)C(=O)N[C@@H](Cc1ccccc1)C(=O)N[C@H](C(=O)N[C@@H](CCC(=O)O)C(=O)N[C@@H](Cc1c[nH]c2ccccc12)C(=O)N[C@@H](CC(C)C)C(=O)N[C@@H](CC(C)C)C(=O)N[C@@H](C)C(=O)N[C@@H](C)C(=O)N1CCC[C@H]1C(=O)N[C@@H](CO)C(=O)N[C@@H](CO)C(=O)NCC(=O)N[C@@H](C)C(=O)N1CCC[C@H]1C(=O)N1CCC[C@H]1C(=O)N1CCC[C@H]1C(=O)N[C@@H](CO)C(N)=O)C(C)C` [Compound 40] (H-Y[Aib]EGTFTSDYSIALDKK([AEEA-AEEA-γGlu-C20 diacid])AQRAFVEWLLAAPSSGAPPPS-NH2): 0.023 nM and 0.021 nM.
On the same counts, the results for `CC[C@H](C)[C@H](NC(=O)[C@H](CO)NC(=O)[C@H](Cc1ccc(O)cc1)NC(=O)[C@H](CC(=O)O)NC(=O)[C@H](CO)NC(=O)[C@@H](NC(=O)[C@H](Cc1ccccc1)NC(=O)[C@@H](NC(=O)CNC(=O)[C@H](CCC(=O)O)NC(=O)C(C)(C)NC(=O)[C@@H](N)Cc1ccc(O)cc1)[C@@H](C)O)[C@@H](C)O)C(=O)N[C@@H](C)C(=O)N[C@@H](CC(C)C)C(=O)N[C@@H](CC(=O)O)C(=O)N[C@@H](CCCCN)C(=O)N[C@@H](CCCCNC(=O)COCCOCCNC(=O)COCCOCCNC(=O)CC[C@H](NC(=O)CCCCCCCCCCCCCCCCCCC(=O)O)C(=O)O)C(=O)N[C@@H](C)C(=O)N[C@@H](C)C(=O)N[C@@H](CCCCN)C(=O)N[C@@H](CCC(=O)O)C(=O)N[C@@H](Cc1ccccc1)C(=O)N[C@H](C(=O)N[C@@H](CCC(=O)O)C(=O)N[C@@H](Cc1c[nH]c2ccccc12)C(=O)N[C@@H](CC(C)C)C(=O)N[C@@H](CC(C)C)C(=O)N[C@@H](CO)C(=O)N[C@@H](C)C(=O)NCC(=O)N1CCC[C@H]1C(=O)N[C@@H](CO)C(=O)N[C@@H](CO)C(=O)NCC(=O)N[C@@H](C)C(=O)N1CCC[C@H]1C(=O)N1CCC[C@H]1C(=O)N1CCC[C@H]1C(=O)N[C@@H](CO)C(N)=O)C(C)C` [Compound 41] (H-Y[Aib]EGTFTSDYSIALDKK([AEEA-AEEA-γGlu-C20 diacid])AAKEFVEWLLSAGPSSGAPPPS-NH2) are 0.015 nM and 0.038 nM.
Take `CC[C@H](C)[C@H](NC(=O)[C@H](CO)NC(=O)[C@H](Cc1ccc(O)cc1)NC(=O)[C@H](CC(=O)O)NC(=O)[C@H](CO)NC(=O)[C@@H](NC(=O)[C@H](Cc1ccccc1)NC(=O)[C@@H](NC(=O)CNC(=O)[C@H](CCC(=O)O)NC(=O)C(C)(C)NC(=O)[C@@H](N)Cc1ccc(O)cc1)[C@@H](C)O)[C@@H](C)O)C(=O)N[C@@H](C)C(=O)N[C@@H](CC(C)C)C(=O)N[C@@H](CC(=O)O)C(=O)N[C@@H](CCCCN)C(=O)N[C@@H](CCCCNC(=O)COCCOCCNC(=O)COCCOCCNC(=O)CC[C@H](NC(=O)CCCCCCCCCCCCCCCCCCC(=O)O)C(=O)O)C(=O)N[C@@H](C)C(=O)N[C@@H](CCC(N)=O)C(=O)N[C@@H](CCCNC(=N)N)C(=O)N[C@@H](C)C(=O)N[C@@H](Cc1ccccc1)C(=O)N[C@H](C(=O)N[C@@H](CCC(=O)O)C(=O)N[C@@H](Cc1c[nH]c2ccccc12)C(=O)N[C@@H](CC(C)C)C(=O)N[C@@H](CC(C)C)C(=O)N[C@@H](C)C(=O)N[C@@H](CCC(N)=O)C(=O)NCC(=O)N1CCC[C@H]1C(=O)N[C@@H](CO)C(=O)N[C@@H](CO)C(=O)NCC(=O)N[C@@H](C)C(=O)N1CCC[C@H]1C(=O)N1CCC[C@H]1C(=O)N1CCC[C@H]1C(=O)N[C@@H](CO)C(N)=O)C(C)C` [Compound 42] (H-Y[Aib]EGTFTSDYSIALDKK([AEEA-AEEA-γGlu-C20 diacid])AQRAFVEWLLAQGPSSGAPPPS-NH2): the EC50 was found to be 0.009 nM on human GIP R and 0.017 nM on human GLP-1 R.

The values are drawn from patent US10093713B2, “GIP-GLP-1 dual agonist compounds and methods” (priority 2013, dated 2018).
